# According to the supplement of paper PMC13380429:
# Where a name gives a salt, the structure may show the parent alone.
# Assays:
# Conditions in all cases: 72 h
# [1] = tested on: HepG2; assay: drug sensitivity score (DSS) for viability; higher = more toxic; extreme values may be limits of the assay
# [2] = tested on: Caco-2; assay: as above
# [3] = tested on: U2OS; assay: as above
# [4] = tested on: Calu-3; assay: as above
# [5] = tested on: Vero E6; assay: as above
# [6] = tested on: HepG2; assay: cell viability relative to DMSO; higher = less toxic
# [7] = tested on: Caco-2; assay: as above
# [8] = tested on: U2OS; assay: as above
# [9] = tested on: Calu-3; assay: as above
# [10] = tested on: Vero E6; assay: as above
# [11] = tested on: HepG2; assay: relative viability EC50 (midpoint between 100% and the lowest measured viability); higher = less toxic
# [12] = tested on: Caco-2; assay: as above
# [13] = tested on: U2OS; assay: as above
# [14] = tested on: Calu-3; assay: as above
# [15] = tested on: Vero E6; assay: as above
Structure (SMILES),drug sensitivity score [1],drug sensitivity score [2],drug sensitivity score [3],drug sensitivity score [4],drug sensitivity score [5],cell viability ([6]; 1 nM),cell viability ([6]; 10 nM),cell viability ([6]; 100 nM),cell viability ([6]; 1000 nM),cell viability ([6]; 10000 nM),cell viability ([7]; 1 nM),cell viability ([7]; 10 nM),cell viability ([7]; 100 nM),cell viability ([7]; 1000 nM),cell viability ([7]; 10000 nM),cell viability ([8]; 1 nM),cell viability ([8]; 10 nM),cell viability ([8]; 100 nM),cell viability ([8]; 1000 nM),cell viability ([8]; 10000 nM),cell viability ([9]; 1 nM),cell viability ([9]; 10 nM),cell viability ([9]; 100 nM),cell viability ([9]; 1000 nM),cell viability ([9]; 10000 nM),cell viability ([10]; 1 nM),cell viability ([10]; 10 nM),cell viability ([10]; 100 nM),cell viability ([10]; 1000 nM),cell viability ([10]; 10000 nM),relative viability EC50 [11],relative viability EC50 [12],relative viability EC50 [13],relative viability EC50 [14],relative viability EC50 [15]
N[C@@H](CSS(=O)(=O)O)C(=O)O [S-sulfo-L-cysteine],0,0,0,0,0,108%,101%,103%,94.8%,94.5%,97.9%,105%,88.1%,100%,94.2%,94.4%,102%,95%,102%,98.4%,97.7%,92.6%,94.4%,95.8%,95.2%,98.3%,96.2%,103%,97.5%,102%,> 10 µM,> 10 µM,> 10 µM,> 10 µM,> 10 µM
COCCN1CCC(C(=O)NO)(S(=O)(=O)c2ccc(Oc3ccc(OC(F)(F)F)cc3)cc2)CC1 [SD-2590],0,0,0,0.1,0,95.9%,93.8%,93.9%,89%,91.6%,97.8%,103%,95.9%,98.8%,107%,98.2%,103%,92.2%,100%,98.8%,93.9%,96.8%,96.9%,98.8%,88.1%,97.6%,94%,98.7%,92.2%,103%,> 10 µM,> 10 µM,> 10 µM,> 10 µM,> 10 µM
CC(C)(C)c1ccc(S(=O)(=O)NCc2ccc(C(=O)Nc3cccnc3)cc2)cc1 [STF-31],8.1,7,13.6,4.7,5.4,105%,103%,106%,76.5%,16.9%,96.7%,99.3%,96.2%,89.6%,5.5%,103%,98.8%,106%,28.8%,0.2%,90.7%,96.3%,100%,106%,7.7%,103%,102%,106%,101%,2.9%,1.45 µM,2.26 µM,0.698 µM,3.48 µM,3.2 µM
CN[C@@H]1[C@H](O[C@H]2[C@H](O[C@H]3[C@H](O)[C@@H](O)[C@H](N=C(N)N)[C@@H](O)[C@@H]3N=C(N)N)O[C@@H](C)[C@]2(O)C=O)O[C@@H](CO)[C@H](O)[C@H]1O [STREPTOMYCIN SULFATE [5mM; 10% aq DMSO + 5mM ethanolamine]],0,0,0,0,0,101%,105%,102%,101%,98.2%,95%,106%,88.5%,95.7%,98.1%,98.7%,100%,94.5%,99.5%,95.7%,87.6%,102%,86.6%,91.9%,91.7%,97.8%,98.5%,99.9%,95.2%,98.3%,> 10 µM,> 10 µM,> 10 µM,> 10 µM,> 10 µM
O=C1CC(=O)c2c(Cl)c(Cl)c(Cl)c(Cl)c21 [TCID],0,0,0,0,0,99.9%,101%,104%,107%,107%,120%,102%,98.3%,91.1%,95.6%,101%,103%,106%,104%,94.6%,88%,88.5%,91.7%,77.9%,89.2%,101%,99.1%,97%,101%,100%,> 10 µM,> 10 µM,> 10 µM,> 10 µM,> 10 µM
COc1cc2c(cc1OC)CN(C(=O)[C@@H](NCc1ccncc1)C(C)(C)C)CC2 [TCS-OX2-29],0,0,0,0,0,101%,93.1%,103%,94.3%,102%,96.9%,95.2%,97.3%,99.2%,91.1%,94.6%,100%,92.6%,98.3%,99.7%,114%,88.9%,103%,98.6%,91.7%,100%,91.9%,96.8%,93.9%,96.9%,> 10 µM,> 10 µM,> 10 µM,> 10 µM,> 10 µM
O=C(NC(=O)c1c(F)cccc1Cl)NC1c2ccccc2-c2ccccc21 [TMN-355],0,0,0,0,0,97.4%,103%,101%,109%,108%,93.1%,93.7%,86.8%,92.1%,104%,97.4%,99.9%,96.9%,94.2%,102%,88%,93.9%,108%,91.7%,97.6%,100%,91.9%,104%,98.4%,106%,> 10 µM,> 10 µM,> 10 µM,> 10 µM,> 10 µM
CC[C@@H](c1cccc(O)c1)[C@@H](C)CN(C)C [Tapentadol (hydrochloride)],0,0,0,0.1,0,97%,90.6%,95.2%,101%,99.9%,93.5%,99.6%,96.3%,91.7%,107%,97%,99.7%,102%,93.9%,97.8%,89%,80.2%,102%,90.9%,92.5%,103%,108%,97.3%,97.1%,96.3%,> 10 µM,> 10 µM,> 10 µM,> 10 µM,> 10 µM
N[C@@H](Cn1ccc(=O)n(Cc2ccccc2C(=O)O)c1=O)C(=O)O [UBP-302],0,0,0,0,0,103%,101%,97.9%,101%,104%,91.6%,93%,91.2%,89.6%,98.1%,99%,95.5%,97.6%,92.7%,98.7%,105%,94.8%,107%,115%,107%,101%,98.6%,103%,101%,102%,> 10 µM,> 10 µM,> 10 µM,> 10 µM,> 10 µM
O=C(c1cncc(Br)c1)N1CCC(N2CCCC2)CC1 [UNC669],0,0,0,0,0,98.3%,102%,103%,93.4%,101%,99.1%,105%,90.5%,111%,92.7%,97.1%,106%,95.1%,102%,93.6%,99.3%,110%,93.7%,98.4%,98.3%,101%,102%,95.7%,100%,97.8%,> 10 µM,> 10 µM,> 10 µM,> 10 µM,> 10 µM
C[C@H](NC(=O)/C(C#N)=C/c1cccc(Br)n1)c1ccccc1 [WP1066],5.8,4.1,5.7,0.8,5,100%,101%,105%,94.2%,10.3%,95.8%,96.7%,96.4%,104%,20.1%,102%,99.2%,105%,98.5%,0.7%,102%,93%,90.6%,103%,75.4%,97.3%,96.8%,98.3%,97.6%,15.9%,2.66 µM,3.45 µM,3.06 µM,> 10 µM,2.96 µM
CN(Cc1cccc(-c2ccccc2)c1)C(=O)Oc1ccc(-c2ccc(C(N)=O)cc2)cc1 [WWL-123],0,0.4,0,0,0,95.9%,110%,108%,102%,100%,99.1%,95.4%,98.1%,91.8%,84.8%,101%,98.7%,102%,98%,101%,101%,99.7%,101%,105%,99.4%,101%,100%,101%,99.5%,98.3%,> 10 µM,> 10 µM,> 10 µM,> 10 µM,> 10 µM
C[n+]1c2cc(N)ccc2cc2ccc(N)cc21.Nc1ccc2cc3ccc(N)cc3nc2c1 [acriflavine],14.9,8.5,6.1,8.6,6.1,91.6%,95.3%,88.9%,29.2%,0.7%,91.9%,101%,93.6%,65.2%,19.2%,98.1%,100%,96.6%,95.8%,0%,103%,93.1%,102%,73%,15.4%,97%,100%,98.8%,95.1%,2.8%,0.49 µM,1.17 µM,2.85 µM,1.35 µM,2.77 µM
